Earlier results in patent US8613914B2, “Peptidomimetic sulfamide compounds and antiviral uses thereof” (Novartis AG, priority 2009, dated 2013).

System: HCV
Settings: ribavirin alone, cited from earlier work

NC(=O)c1ncn([C@@H]2O[C@H](CO)[C@@H](O)[C@H]2O)n1 [Ribavirin, ribavirin]
serum levels of HCV-RNA (patients): does not lower serum levels of HCV-RNA
patients in whom serum amino transferase levels are reduced to normal: 40%
